Measured values reported in publication PMC8761493, “New insights into the phosphorylation of the threonine motif of the β1 integrin cytoplasmic domain” (Life Science Alliance, 2022).

Assays:
kindlin-2 = target: T1, kindlin-2 (Homo sapiens, UniProt Q96AC1); assay: Microscale thermophoresis (MST) affinity measurement; type: binding; settings: compared with β1-WT tails
T1 sequence (Q96AC1 1-680): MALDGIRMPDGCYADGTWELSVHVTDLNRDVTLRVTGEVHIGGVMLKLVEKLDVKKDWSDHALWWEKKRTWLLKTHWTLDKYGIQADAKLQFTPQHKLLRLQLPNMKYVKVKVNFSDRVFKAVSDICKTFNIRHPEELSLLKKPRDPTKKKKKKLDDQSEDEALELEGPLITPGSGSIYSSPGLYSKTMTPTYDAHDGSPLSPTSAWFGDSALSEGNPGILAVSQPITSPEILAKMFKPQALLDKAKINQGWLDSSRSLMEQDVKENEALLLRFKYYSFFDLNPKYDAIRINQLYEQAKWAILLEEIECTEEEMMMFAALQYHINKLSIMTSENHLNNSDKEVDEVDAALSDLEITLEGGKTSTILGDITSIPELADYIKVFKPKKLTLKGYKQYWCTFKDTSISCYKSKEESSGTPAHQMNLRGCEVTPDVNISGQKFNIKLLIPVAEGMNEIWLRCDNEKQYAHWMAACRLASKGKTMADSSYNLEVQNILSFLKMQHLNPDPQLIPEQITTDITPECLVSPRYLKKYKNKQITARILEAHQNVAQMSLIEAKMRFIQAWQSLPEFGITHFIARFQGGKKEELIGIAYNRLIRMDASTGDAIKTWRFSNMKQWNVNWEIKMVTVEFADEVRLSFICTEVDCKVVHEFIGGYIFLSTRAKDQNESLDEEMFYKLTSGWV
Experimental: All MST measurements were performed on a Monolith NT.115 red-blue (Nanotemper) using premium-coated capillaries to reduce non-specific interaction of the proteins with the glass surface. Both interaction partners (ligand and receptor) were transferred into MST buffer (20 mM Tris, pH 7.5, 200 mM sodium chloride, 1 mM tris(2-carboxyethyl)phosphine [TCEP], 0.05% Tween-20) to avoid artifacts derived from buffer mismatches. […] The measurements were carried out at 20% light emitting diode power and 20% and 40% MST power. Data were analyzed using the MO Affinity Analysis Software (Nanotemper).

recombinant kindlin-2 = assay: Streptavidin-bead peptide pull-down with recombinant protein; type: binding; settings: N-terminally desthio biotinylated peptide on streptavidin beads; kindlin-2 2.5 nM; THD absent or present; 2 h at 4°C; Western blot
Experimental: (§1) Before use, peptides were immobilized on 25 μl Dynabeads MyOne Streptavidin C1 (10 mg/ml; Invitrogen) in Mammalian Protein Extraction Reagent (Thermo Fisher Scientific) containing protease inhibitors (cOmplete; Roche) and phosphatase inhibitors (Phosphatase Inhibitor Cocktail 2 and 3; Sigma-Aldrich) for 3 h at 4°C. Cell lysates were prepared with MPER containing protease and phosphatase inhibitors and 0.5 mg of supernatant was incubated with the peptide-coated beads at 4°C under constant rotation. For pull-downs with recombinant proteins, synthetic β1 integrin tail peptides were immobilized on 25 μl Dynabeads MyOne Streptavidin C1 (10 mg/ml; Invitrogen) for 3 h at 4°C, incubated with 2% BSA in Mammalian Protein Extraction Reagent (Thermo Scientific Scientific) for 30 min at 4°C to block unspecific binding before adding kindlin-2 or THD (conc 2.5 and 8.5 nM, respectively) and further incubation on a rotator for 2 h at 4°C. After washing the beads three times with lysis buffer, the proteins bound to the beads were eluted using Laemmli buffer, separated on a 10% SDS–PAGE, and analyzed by Western blotting.

endogenous SNX17 = assay: Peptide pull-down from whole cell lysate, Western blot; type: binding; settings: densitometry, compared with β1-WT, mean ± SD, n = 5, SD
Experimental: as §1

endogenous kindlin-2 = assay: as above; type: binding; settings: densitometry, compared with β1-WT, mean ± SD, n = 5, SD
Experimental: as §1

[1] = Mass spectrometry-based measurement of the peptide's phosphorylation state after incubation in whole cell lysates; type: in vitro ADME; settings: whole cell lysate in MPER with protease and phosphatase inhibitors, 4°C; read-out mass spectrometry

- affinity of kindlin-2 for the tail peptide (in words) (kindlin-2): not measurable anymore
- reduction of the peptide's phosphorylation after incubation in whole cell lysates [1]: around 40%
SMILES: CC[C@H](C)[C@H](NC(=O)[C@@H]1CCCN1C(=O)[C@H](CC(N)=O)NC(=O)[C@H](CCC(=O)O)NC(=O)CNC(=O)[C@@H](NC(=O)[C@H](CC(=O)O)NC(=O)[C@H](Cc1c[nH]c2ccccc12)NC(=O)[C@H](CCCCN)NC(=O)[C@H](C)NC(=O)[C@H](CC(N)=O)NC(=O)[C@H](CCSC)NC(=O)[C@H](CCCCN)NC(=O)[C@H](CCC(=O)O)NC(=O)[C@H](CCCCN)NC(=O)[C@H](CCC(=O)O)NC(=O)[C@H](Cc1ccccc1)NC(=O)[C@H](CCCCN)NC(=O)[C@H](C)NC(=O)[C@H](Cc1ccccc1)NC(=O)[C@H](CCC(=O)O)NC(=O)[C@H](CCCNC(=N)N)NC(=O)[C@H](CCCNC(=N)N)NC(=O)[C@H](CC(=O)O)NC(=O)[C@@H](N)Cc1c[nH]cn1)[C@@H](C)O)C(=O)N[C@@H](Cc1ccc(O)cc1)C(=O)N[C@@H](CCCCN)C(=O)N[C@@H](CO)C(=O)N[C@@H](C)C(=O)N[C@H](C(=O)N[C@H](C(=O)N[C@H](C(=O)N[C@H](C(=O)N[C@H](C(=O)N[C@@H](CC(N)=O)C(=O)N1CCC[C@H]1C(=O)N[C@@H](CCCCN)C(=O)N[C@@H](Cc1ccc(O)cc1)C(=O)N[C@@H](CCC(=O)O)C(=O)NCC(=O)N[C@@H](CCCCN)C(=O)O)C(C)C)C(C)C)[C@@H](C)OP(=O)(O)O)[C@@H](C)OP(=O)(O)O)C(C)C [β1-pTpT]
- pull-down of recombinant kindlin-2 (in words) (recombinant kindlin-2): not
- SNX17 binding to the peptide, reduced to (endogenous SNX17): 60 ± 11%
- kindlin-2 binding to the peptide, reduced to (endogenous kindlin-2): 27 ± 11%
